Patent publication US11878975B2, “Substituted indole compounds useful as TLR inhibitors” (BRISTOL-MYERS SQUIBB COMPANY, priority 2017, dated 2024)

Key:
Type in all cases: cell-based
[1] = target: T1, human TLR9 (Homo sapiens, UniProt Q9NR96); assay: TLR9 inhibition reporter assay (HEK-Blue cells, SEAP reporter, ODN2006 stimulation); conditions: HEK-Blue cells overexpressing human TLR9, SEAP reporter, ODN2006 5 nM
T1 construct: host or cells: HEK-Blue cells
T1 sequence (Q9NR96 26-1032): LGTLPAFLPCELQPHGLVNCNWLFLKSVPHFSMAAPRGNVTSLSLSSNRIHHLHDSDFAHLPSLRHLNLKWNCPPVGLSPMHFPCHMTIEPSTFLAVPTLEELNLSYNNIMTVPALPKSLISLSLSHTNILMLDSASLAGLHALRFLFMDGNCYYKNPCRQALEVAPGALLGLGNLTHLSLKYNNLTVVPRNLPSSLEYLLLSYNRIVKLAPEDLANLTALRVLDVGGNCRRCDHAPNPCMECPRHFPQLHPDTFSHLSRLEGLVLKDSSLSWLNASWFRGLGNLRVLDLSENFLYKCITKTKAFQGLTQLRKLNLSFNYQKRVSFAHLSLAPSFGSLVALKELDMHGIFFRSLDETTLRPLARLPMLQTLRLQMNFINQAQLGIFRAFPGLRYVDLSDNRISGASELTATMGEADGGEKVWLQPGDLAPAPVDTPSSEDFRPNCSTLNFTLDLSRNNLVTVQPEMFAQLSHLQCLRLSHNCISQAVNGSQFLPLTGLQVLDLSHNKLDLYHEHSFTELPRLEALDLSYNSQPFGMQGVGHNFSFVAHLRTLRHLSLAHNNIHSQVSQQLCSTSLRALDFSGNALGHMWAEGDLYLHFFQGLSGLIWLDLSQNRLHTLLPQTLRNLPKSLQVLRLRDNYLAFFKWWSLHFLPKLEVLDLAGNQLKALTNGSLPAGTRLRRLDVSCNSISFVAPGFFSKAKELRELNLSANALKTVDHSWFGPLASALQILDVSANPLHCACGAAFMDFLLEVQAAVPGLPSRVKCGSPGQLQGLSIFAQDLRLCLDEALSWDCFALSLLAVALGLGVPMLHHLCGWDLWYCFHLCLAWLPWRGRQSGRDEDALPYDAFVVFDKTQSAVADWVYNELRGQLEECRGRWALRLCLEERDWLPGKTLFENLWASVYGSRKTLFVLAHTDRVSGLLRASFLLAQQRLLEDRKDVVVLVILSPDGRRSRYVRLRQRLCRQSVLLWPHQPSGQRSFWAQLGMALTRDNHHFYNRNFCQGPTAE
In short: (§1)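 Percent inhibition is derived from SEAP signal, scaled between agonist-plus-DMSO wells and wells given a known inhibitor. Test compounds (0.05 nM–50 μM) are pre-incubated 30 min at room temperature before agonist addition (TLR7: 7.5 μM gardiquimod; TLR8: 15.9 μM R848; TLR9: 5 nM ODN2006) and 22 h culture at 37 °C.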

[2] = target: T2, human TLR8 (Homo sapiens, UniProt Q9NR97); assay: TLR8 inhibition reporter assay (HEK-Blue cells, SEAP reporter, R848 stimulation); conditions: HEK-Blue cells overexpressing human TLR8, SEAP reporter, R848 15.9 μM
T2 construct: host or cells: HEK-Blue cells
T2 sequence (Q9NR97 27-1041): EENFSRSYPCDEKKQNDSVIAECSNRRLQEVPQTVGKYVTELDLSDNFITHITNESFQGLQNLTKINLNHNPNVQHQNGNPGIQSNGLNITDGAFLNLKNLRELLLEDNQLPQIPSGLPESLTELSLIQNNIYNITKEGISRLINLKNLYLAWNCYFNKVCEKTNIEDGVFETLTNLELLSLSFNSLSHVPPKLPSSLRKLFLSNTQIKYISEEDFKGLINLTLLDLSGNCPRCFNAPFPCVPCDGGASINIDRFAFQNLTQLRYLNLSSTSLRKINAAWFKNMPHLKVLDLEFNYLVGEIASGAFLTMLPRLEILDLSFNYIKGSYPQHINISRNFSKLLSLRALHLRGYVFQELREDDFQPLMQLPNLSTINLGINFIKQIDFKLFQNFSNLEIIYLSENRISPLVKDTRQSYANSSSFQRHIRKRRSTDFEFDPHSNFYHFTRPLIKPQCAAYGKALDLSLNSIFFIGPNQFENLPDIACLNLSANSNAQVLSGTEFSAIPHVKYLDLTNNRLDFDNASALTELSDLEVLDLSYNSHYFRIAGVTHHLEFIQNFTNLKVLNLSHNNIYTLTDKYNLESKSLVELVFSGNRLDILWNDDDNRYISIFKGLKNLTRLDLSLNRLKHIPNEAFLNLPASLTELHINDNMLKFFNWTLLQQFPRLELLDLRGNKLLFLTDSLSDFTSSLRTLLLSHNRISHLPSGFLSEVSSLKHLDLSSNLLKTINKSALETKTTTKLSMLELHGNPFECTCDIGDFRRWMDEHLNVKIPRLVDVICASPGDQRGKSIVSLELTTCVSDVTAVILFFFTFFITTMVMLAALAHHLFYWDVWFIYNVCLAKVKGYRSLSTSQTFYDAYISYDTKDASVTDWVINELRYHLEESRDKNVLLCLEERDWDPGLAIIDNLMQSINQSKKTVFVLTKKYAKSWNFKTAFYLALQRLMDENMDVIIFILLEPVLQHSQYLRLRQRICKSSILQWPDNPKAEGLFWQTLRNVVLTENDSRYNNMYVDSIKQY
In short: as §1

[3] = target: T3, human TLR7 (Homo sapiens, UniProt Q9NYK1); assay: TLR7 inhibition reporter assay (HEK-Blue cells, SEAP reporter, gardiquimod stimulation); conditions: HEK-Blue cells overexpressing human TLR7, SEAP reporter, gardiquimod 7.5 μM
T3 construct: host or cells: HEK-Blue cells
T3 sequence (Q9NYK1 27-1049): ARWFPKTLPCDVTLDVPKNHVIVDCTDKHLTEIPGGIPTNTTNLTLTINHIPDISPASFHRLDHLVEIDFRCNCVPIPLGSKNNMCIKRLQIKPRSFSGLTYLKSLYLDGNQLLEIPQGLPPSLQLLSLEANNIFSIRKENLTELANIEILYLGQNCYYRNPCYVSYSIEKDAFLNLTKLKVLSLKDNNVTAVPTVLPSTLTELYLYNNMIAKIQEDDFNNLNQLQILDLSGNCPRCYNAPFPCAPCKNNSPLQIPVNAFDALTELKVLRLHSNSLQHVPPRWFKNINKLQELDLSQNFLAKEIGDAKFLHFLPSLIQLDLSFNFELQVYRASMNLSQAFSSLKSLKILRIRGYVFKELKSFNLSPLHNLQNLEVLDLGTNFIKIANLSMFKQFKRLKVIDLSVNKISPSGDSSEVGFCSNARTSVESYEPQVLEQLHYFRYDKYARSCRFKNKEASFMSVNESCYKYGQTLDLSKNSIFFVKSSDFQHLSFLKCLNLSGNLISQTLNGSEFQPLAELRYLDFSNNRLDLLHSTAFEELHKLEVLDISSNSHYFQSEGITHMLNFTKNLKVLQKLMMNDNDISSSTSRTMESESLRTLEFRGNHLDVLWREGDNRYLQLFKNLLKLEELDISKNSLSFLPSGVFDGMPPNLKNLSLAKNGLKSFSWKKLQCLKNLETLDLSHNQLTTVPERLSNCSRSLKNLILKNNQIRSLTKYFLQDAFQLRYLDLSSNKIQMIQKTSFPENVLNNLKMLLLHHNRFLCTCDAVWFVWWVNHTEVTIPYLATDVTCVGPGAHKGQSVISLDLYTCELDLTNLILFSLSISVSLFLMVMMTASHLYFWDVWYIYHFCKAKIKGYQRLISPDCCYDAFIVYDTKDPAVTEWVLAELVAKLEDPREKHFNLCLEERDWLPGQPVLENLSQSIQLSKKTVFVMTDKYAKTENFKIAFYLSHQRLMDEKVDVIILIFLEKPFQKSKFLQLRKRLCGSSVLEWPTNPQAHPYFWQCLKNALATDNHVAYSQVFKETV
In short: as §1

| SMILES | IC50 [1] [nM] | IC50 [2] [nM] | IC50 [3] [nM] |
| --- | --- | --- | --- |
| Cc1cc(-c2[nH]c3ccc(C4CCC(O)(C(F)(F)F)CC4)cc3c2C(C)C)cc(C)n1 (stereo not drawn) [Example 175, 4-(2-(2,6-dimethylpyridin-4-yl)-3-isopropyl-1H-indol-5-yl)-1-(trifluoromethyl)cyclohexanol] | 2140 | 119 | 37 |
| Cc1cc(-c2[nH]c3ccc([C@@H]4C[C@H]4C(=O)NC4CCN(C(C)C)CC4)cc3c2C(C)C)ccn1 [Example 458] | 2270 | 21 | 57 |
| COc1cc(-c2[nH]c3ccc(C4CN(CC(=O)N(C)C)CCO4)cc3c2C(C)C)cn2ncnc12 (stereo not drawn) [Example 314] | > 50000 | 13 | 24 |
| COc1cc(-c2[nH]c3ccc(C4CCC(N5CC(C)OC(C)C5)CC4)cc3c2C(C)C)cn2ncnc12 (stereo not drawn) [Example 41] | 2280 | 7.7 | 4 |
| COCCC(=O)N1CCCC(c2ccc3[nH]c(-c4cc(C)nc(C)c4)c(C(C)C)c3c2)C1 (stereo not drawn) [Example 207] | 43500 | 97 | 24 |
| COc1cc(-c2[nH]c3ccc(C4CCC(NC(=O)CN(C)C)CC4)cc3c2C(C)C)cn2ncnc12 (stereo not drawn) [Example 122] | 8700 | 2.4 | 0.24 |
| Cc1cc(-c2[nH]c3ccc(CCN4CCOCC4)cc3c2C(C)C)cn(C)c1=O [Example 403] | 23000 | 7.5 | 36 |
| CNCC(=O)N1CCOC(c2ccc3[nH]c(-c4cc(C)c5ncnn5c4)c(C(C)C)c3c2)C1 (stereo not drawn) [Example 338] | 2050 | 7.1 | 0.78 |
| Cc1cc(-c2[nH]c3ccc(C4CCC(C(=O)N5CCN(C)CC5)CC4)cc3c2C(C)C)cn2ncnc12 (single isomer, unassigned) [Example 156] | 3640 | 6.7 | 0.82 |
| CCN(C)C1CCC(c2ccc3[nH]c(-c4cc(C)c5ncnn5c4)c(C(C)C)c3c2)CC1 (stereo not drawn) [Example 63] | 5920 | 5.9 | 0.81 |
| COc1cc(-c2[nH]c3ccc(C4CC(N(C)C(=O)CN(C)C)C4)cc3c2C(C)C)cn2ncnc12 (stereo not drawn) [Example 588] | 1870 | 1.4 | 0.4 |
| CNC(=O)CN1CC(c2ccc3[nH]c(-c4cc(C)c5ncnn5c4)c(C(C)C)c3c2)C1 [Example 260, 2-(3-(3-isopropyl-2-(8-methyl-[1,2,4]triazolo[1,5-a]pyridin-6-yl)-1H-indol-5-yl)azetidin-1-yl)-N-methylacetamide] | 5250 | 3.9 | 2 |
| Cc1cc(-c2[nH]c3ccc(C4CCC(NC(=O)CN(C)C)CC4)cc3c2C(C)C)cc(C)n1 (stereo not drawn) [Example 119] | 976 | 7.2 | 0.95 |
| Cc1c(-c2[nH]c3ccc(C4CN(C(C)C)C4)cc3c2C(C)C)cn2ncnc2c1C [Example 555] | 7730 | 10 | 9 |
| CN[C@H](C)C(=O)N1CCCC(c2ccc3[nH]c(-c4cc(C)nc(C)c4)c(C(C)C)c3c2)C1 (stereo partly drawn) [Example 217] | 697 | 51 | 5 |
| Cc1c(-c2[nH]c3ccc(C4CN(CCS(C)(=O)=O)CCO4)cc3c2C(C)C)cn2ncnc2c1C (stereo not drawn) [Example 346] | > 50000 | 24 | 25 |
| CCc1c(-c2ccc(OC)c(OC)c2)[nH]c2ccc(CN3CC4CNCC4C3)cc12 (stereo not drawn) [Example 391] | 527 | 354 | 164 |
| Cc1cc(-c2[nH]c3ccc(C4CCC(NC(=O)CN(C)C)CC4)cc3c2C(C)C)cn2ncnc12 (stereo not drawn) [Example 121] | 7150 | 2.6 | 0.41 |
| COCCN(C)C1CCC(c2ccc3[nH]c(-c4cn5ncnc5c(C)c4C)c(C(C)C)c3c2)CC1 (single isomer, unassigned) [Example 152, 4-(2-(7,8-dimethyl-[1,2,4]triazolo[1,5-a]pyridin-6-yl)-3-isopropyl-1H-indol-5-yl)-N-(2-methoxyethyl)-N-methylcyclohexanamine] | 2850 | 3.4 | 4 |
| Cc1cc(-c2[nH]c3ccc(C4CCCN(C(=O)C5(C)COC5)C4)cc3c2C(C)C)cc(C)n1 (stereo not drawn) [Example 203] | 43900 | 345 | 56 |
| COc1cc(-c2[nH]c3ccc(C4CCC(C)(NC(=O)CN(C)C)CC4)cc3c2C(C)C)cn2ncnc12 (stereo not drawn) [Example 154, 2-(dimethylamino)-N-(4-(3-isopropyl-2-(8-methoxy-[1,2,4]triazolo[1,5-a]pyridin-6-yl)-1H-indol-5-yl)-1-methylcyclohexyl)acetamide] | 5680 | 12 | 4 |
| CCN(C)C1CCC(c2ccc3[nH]c(-c4cn5ncnc5c(C)c4C)c(C(C)C)c3c2)CC1 (stereo not drawn) [Example 87] | 1910 | 0.63 | 0.32 |
| Cc1cc(-c2[nH]c3ccc(C4CN(CC(N)=O)CCO4)cc3c2C(C)C)cc(C)n1 (stereo not drawn) [Example 327] | > 50000 | 48 | 54 |
